Target: T1, human B1R (Homo sapiens, UniProt P46663)
T1 construct: expressed in transfected cells; host or cells: CHO K1 cells (Chinese Hamster Ovary), stably transfected
T1 sequence (P46663 1-353): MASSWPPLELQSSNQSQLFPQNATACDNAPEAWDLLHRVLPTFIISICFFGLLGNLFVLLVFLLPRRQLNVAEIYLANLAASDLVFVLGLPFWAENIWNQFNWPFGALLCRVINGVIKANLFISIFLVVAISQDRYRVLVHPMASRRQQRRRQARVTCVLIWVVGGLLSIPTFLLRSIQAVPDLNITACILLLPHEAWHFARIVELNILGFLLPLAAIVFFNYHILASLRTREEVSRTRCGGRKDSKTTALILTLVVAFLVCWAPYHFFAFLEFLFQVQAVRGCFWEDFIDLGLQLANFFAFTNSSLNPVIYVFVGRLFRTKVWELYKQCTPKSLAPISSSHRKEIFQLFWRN
Assay: Functional assay at bradykinin receptor 1 (B1R): Ca2+ fluorescence (Fluo-4) in FLIPR/Novostar, antagonist mode
Format: cell-based
Conditions: test substance 10 µM; CHO K1 cells stably transfected with human B1R gene (hB1R-Zellen); agonist Lys-Des-Arg9-Bradykinin at EC80; % inhibition relative to maximal achievable inhibition; read-out: % Inhibierung (human B1R) bei 10 µM
Method in brief: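 Antagonism read as suppression of the Ca2+ rise in Fluo-4-loaded, hB1R-transfected CHO K1 cells when Lys-Des-Arg9-bradykinin (EC80) follows a 6–20 min compound preincubation. Maximal fluorescence counts, measured on FLIPR or Novostar, yield % inhibition relative to maximum; IC50 values come from concentration series run in duplicate or triplicate.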

Compared with COc1cc(C)c(S(=O)(=O)Cc2cn(CC(=O)N(C)C3CCNCC3(C)C)nn2)c(C)c1 (stereo not drawn) [CC-181, N-(3,3-Dimethyl-piperidin-4-yl)-2-[4-[[(4-methoxy-2,6-dimethyl-phenyl)sulfonyl]-methyl]-1 H-[1,2,3]-triazol-1-yl]-N-methyl-acetamid], COc1cc(C)c(S(=O)(=O)Cc2c(C)nn(CC(=O)N(C)C3CCNCC3(C)C)c2C)c(C)c1 (stereo not drawn) [CC-185, N-(3,3-Dimethyl-piperidin-4-yl)-2-[4-[[(4-methoxy-2,6-dimethyl-phenyl)sulfonyl]-methyl]-3,5-dimethyl-1 H-pyrazol-1-yl]-N-methyl-acetamid] is lower in inhibition at 10 µM: 99% for the first, 72% for the second.

Going from COc1cc(C)c(S(=O)(=O)Cc2cn(CC(=O)NC3CCNCC3)nn2)c(C)c1 [CC-182, 2-[4-[[(4-Methoxy-2,6-dimethyl-phenyl)sulfonyl]-methyl]-1H-[1,2,3]triazol-1-yl]-N-piperidin-4-yl-acetamid] to COc1cc(C)c(S(=O)(=O)Cc2cn(CC(=O)NC3CCN(C)CC3(C)C)nn2)c(C)c1 (stereo not drawn) [CC-183, 2-[4-[[(4-Methoxy-2,6-dimethyl-phenyl)sulfonyl]-methyl]-1H-[1,2,3]triazol-1-yl]-N-(1,3,3-trimethyl-piperidin-4-yl)-acetamid], the inhibition at 10 µM rises from 99% to 100%.

First: COc1cc(C)c(S(=O)(=O)Cc2c(C)nn(CC(=O)NC3CCN(C)CC3(C)C)c2C)c(C)c1 (stereo not drawn) [CC-184, 2-[4-[[(4-Methoxy-2,6-dimethyl-phenyl)sulfonyl]-methyl]-3,5-dimethyl-1H-pyrazol-1-yl]-N-(1,3,3-trimethyl-piperidin-4-yl)-acetamid]
Second: COc1cc(C)c(S(=O)(=O)Cc2cc(C)n(CC(=O)NC3CCN(C)CC3(C)C)n2)c(C)c1 (stereo not drawn) [CC-188, 2-[3-[[(4-Methoxy-2,6-dimethyl-phenyl)sulfonyl]-methyl]-5-methyl-1H-pyrazol-1-yl]-N-(1,3,3-trimethyl-piperidin-4-yl)-acetamid]
The inhibition at 10 µM of the first is higher: 100% for the first, 57% for the second.

COc1cc(C)c(S(=O)(=O)Cc2cn(CC(=O)N(C3CCC(N(C)C)CC3)C3CC3)nn2)c(C)c1 (stereo not drawn) [CC-186, N-Cyclopropyl-N-(4-dimethylamino-cyclohexyl)-2-[4-[[(4-methoxy-2,6-dimethyl-phenyl)sulfonyl]-methyl]-1H-[1,2,3]triazol-1-yl]-acetamid] and COc1cc(C)c(S(=O)(=O)Cc2noc(CC(=O)NC3CCC(N4CCN(C)CC4)CC3(C)C)n2)c(C)c1 (stereo not drawn) [SC-13, N-[2,2-Dimethyl-4-(4-methyl-piperazin-1-yl)-cyclohexyl]-2-[3-[[(4-methoxy-2,6-dimethyl-phenyl)sulfonyl]-methyl]-[1,2,4]oxadiazol-5-yl]-acetamid] are the same in inhibition at 10 µM: 100% for the first, 100% for the second.

First: COc1cc(C)c(S(=O)(=O)Cc2noc(C(=O)NC3CCN(c4ccncc4)CC3)n2)c(C)c1 [SC-01, 3-[[(4-Methoxy-2,6-dimethyl-phenyl)sulfonyl]-methyl]-N-(1-pyridin-4-yl-piperidin-4-yl)-[1,2,4]oxadiazol-5-carbonsäure amid]
Second: COc1cc(C)c(S(=O)(=O)Cc2noc(C(=O)NC3CCN(c4ccncc4)CC3(C)C)n2)c(C)c1 (stereo not drawn) [SC-12, N-(3,3-Dimethyl-1-pyridin-4-yl-piperidin-4-yl)-3-[[(4-methoxy-2,6-dimethyl-phenyl)sulfonyl]-methyl]-[1,2,4]oxadiazol-5-carbonsäure amid]
The inhibition at 10 µM of the first is lower: 99% for the first, 100% for the second.

COc1cc(C)c(S(=O)(=O)Cc2noc(C(=O)N3CC4(CCN(c5ccncc5)CC4)C3)n2)c(C)c1 [SC-02, [3-[[(4-Methoxy-2,6-dimethyl-phenyl)sulfonyl]-methyl]-[1,2,4]oxadiazol-5-yl]-(7-pyridin-4-yl-2,7-diazaspiro[3.5]nonan-2-yl)-methanon] and COc1cc(C)c(S(=O)(=O)Cc2noc(C(=O)N3CCC4(CCN(c5ccncc5)C4)C3)n2)c(C)c1 (stereo not drawn) [SC-05, [3-[[(4-Methoxy-2,6-dimethyl-phenyl)sulfonyl]-methyl]-[1,2,4]oxadiazol-5-yl]-(8-pyridin-4-yl-3,8-diazaspiro[4.4]nonan-3-yl)-methanon] are the same in inhibition at 10 µM: 100% for the first, 100% for the second.

Compared with COc1cc(C)c(S(=O)(=O)Cc2noc(C(=O)N3CCC(Oc4ccncc4)C3)n2)c(C)c1 (stereo not drawn) [SC-03, [3-[[(4-Methoxy-2,6-dimethyl-phenyl)sulfonyl]-methyl]-[1,2,4]oxadiazol-5-yl]-(3-pyridin-4-yloxy-pyrrolidin-1-yl)-methanon], COc1cc(C)c(S(=O)(=O)Cc2noc(C(=O)N3CCC4(CCC(Oc5ccncc5)CC4)CC3)n2)c(C)c1 [SC-09, [3-[[(4-Methoxy-2,6-dimethyl-phenyl)sulfonyl]-methyl]-[1,2,4]oxadiazol-5-yl]-(9-pyridin-4-yloxy-3-azaspiro[5.5]undecan-3-yl)-methanon] is higher in inhibition at 10 µM: 98% for the first, 99% for the second.

COc1cc(C)c(S(=O)(=O)Cc2noc(C(=O)N3CCC4(CCN(c5ccncc5)CC4)C3)n2)c(C)c1 [SC-04, [3-[[(4-Methoxy-2,6-dimethyl-phenyl)sulfonyl]-methyl]-[1,2,4]oxadiazol-5-yl]-(8-pyridin-4-yl-3,8-diazaspiro[4.5]decan-3-yl)-methanon] and COc1cc(C)c(S(=O)(=O)Cc2noc(C(=O)N3CCC4(CC3)CCN(c3ccncc3)CC4)n2)c(C)c1 [SC-10, [3-[[(4-Methoxy-2,6-dimethyl-phenyl)sulfonyl]-methyl]-[1,2,4]oxadiazol-5-yl]-(9-pyridin-4-yl-3,9-diazaspiro[5.5]undecan-3-yl)-methanon] are the same in inhibition at 10 µM: 100% for the first, 100% for the second.

Going from COc1cc(C)c(S(=O)(=O)Cc2noc(C(=O)NC3CCN(c4ccc(C(F)(F)F)cn4)C3)n2)c(C)c1 (stereo not drawn) [SC-06, 3-[[(4-Methoxy-2,6-dimethyl-phenyl)sulfonyl]-methyl]-N-[1-[5-(trifluormethyl)-pyridin-2-yl]-pyrrolidin-3-yl]-[1,2,4]oxadiazol-5-carbonsäure amid] to COc1cc(C)c(S(=O)(=O)Cc2noc(C(=O)N3CCC(Cc4ccncc4)CC3)n2)c(C)c1 [SC-08, [3-[[(4-Methoxy-2,6-dimethyl-phenyl)sulfonyl]-methyl]-[1,2,4]oxadiazol-5-yl]-[4-(pyridin-4-yl-methyl)-piperidin-1-yl]-methanon], the inhibition at 10 µM rises from 94% to 99%.

Compared with COc1cc(C)c(S(=O)(=O)Cc2noc(C(=O)N3CCC(CN4CCN(C)CC4)C3)n2)c(C)c1 (stereo not drawn) [SC-07, [3-[[(4-Methoxy-2,6-dimethyl-phenyl)sulfonyl]-methyl]-[1,2,4]oxadiazol-5-yl]-[3-[(4-methyl-piperazin-1-yl)-methyl]-pyrrolidin-1-yl]-methanon], COc1cc(C)c(S(=O)(=O)Cc2noc(CC(=O)N3CCC4(CC3)CCN(c3ccncc3)CC4)n2)c(C)c1 [SC-11, 2-[3-[[(4-Methoxy-2,6-dimethyl-phenyl)sulfonyl]-methyl]-[1,2,4]oxadiazol-5-yl]-1-(9-pyridin-4-yl-3,9-diazaspiro[5.5]undecan-3-yl)-ethanon] is lower in inhibition at 10 µM: 100% for the first, 99% for the second.

COc1cc(C)c(S(=O)(=O)Cc2noc(CC(=O)NC3CCN(c4ccncc4)CC3(C)C)n2)c(C)c1 (stereo not drawn) [SC-14, N-(3,3-Dimethyl-1-pyridin-4-yl-piperidin-4-yl)-2-[3-[[(4-methoxy-2,6-dimethyl-phenyl)sulfonyl]-methyl]-[1,2,4]oxadiazol-5-yl]-acetamid] was tested, and the inhibition at 10 µM was 100%.
